Columns and labels:
in vivo = settings: mouse, in vivo, po
Source text: (§1) Acute toxicity was examined by administering perorally an aqueous solution of each Specimen to female JCL-ICR mouse of 5 to 6 weeks after birth. As the Specimen, trans-4-[N-(3',4'-dihydroxybenzoyl)aminomethyl]cyclohexane-1-carboxylic acid, 4-[N-(3',4'-dihydroxybenzoyl)amino]benzoic acid and 6-[N-(3',4'-dihydroxybenzoyl)amino]caproic acid were used.

female JCL-ICR mouse = test: Acute toxicity; settings: peroral, aqueous solution, female JCL-ICR mouse 5 to 6 weeks
Source text: as §1

[1] = system: platelet aggregation (rabbit platelet rich plasma); test: Inhibitory effect on platelet aggregation (induced by sodium arachidonate); assay type: cell-based; settings: Oryctolagus cuniculus, average value, 1.5 mM of each Specimen, rabbit PRP, preincubated 37° C. 5 min, read-out: Inhibition rate of platelet aggregation
Procedure: Rabbit platelet rich plasma (PRP) was used for Aggregation Tests. PRP was prepared by centrifugation of blood collected from the ear vein of Rabbit and diluted into number-concentration 300,000/μl with platelet poor plasma. Platelet aggregation was induced by Sodium Arachidonate and monitored (measured) with a four channel platelet aggregation Tracer PAT-4A (Niko Bioscience Co., Japan). Aggregation Tracer tube containing 230 μl PRP was preincubated at 37° C. for 5 min with each Specimen.

[2] = system: polynuclear leukocyte migration; test: Inhibitory effect on polynuclear leukocyte migration (Granuloma CMC pouch method); assay type: in vivo, rat (male, Donyru); settings: average value; 100 mg p.o./kg body weight; 6 hours after the administration; rat CMC pouch
Procedure: After shearing the rat on the dorsum about 5 cm in diameter, 5 ml of air was hypodermically injected into the site to form a pouch. After 24 hours, 5 ml of aqueous 2% (w/v) solution of CMC sodium salt at 37° C. was injected into the pouch, and at the same time an aqueous solution of each Specimen was administered perorally to the rat.
After the injection of CMC, the liquid in the pouch was collected as the time passed by in an amount of 0.5 ml and stained. Then the number of polynuclear leukocyte migrated into the pouch was counted.

adjuvant arthritis = test: Prophylactic effect on adjuvant arthritis; assay type: in vivo, rat (female JCL-SD); settings: average value of prophylactic rate; 100 mg p.o./kg/day for continuous 14 days; rat
Procedure: Freund's complete adjuvant (0.6 mg/0.1 ml) was inoculated into the right hind paw of the etherized rat. After palinesthesia, each specimen was administered perorally once a day for 14 continuous days.

O=C(O)c1ccc(NC(=O)c2ccc(O)c(O)c2)cc1 [4-[N-(3',4'-dihydroxybenzoyl)amino]benzoic acid]
LD50 (in vivo): > 3000 mg/kg | abnormality on the mouse (female JCL-ICR mouse): no abnormality on the mouse was found

O=C(O)CCCCCNC(=O)c1ccc(O)c(O)c1 [6-[N-(3',4'-dihydroxybenzoyl)amino]caproic acid]
LD50 (in vivo): > 3000 mg/kg | abnormality on the mouse (female JCL-ICR mouse): no abnormality on the mouse was found

O=C(NC[C@H]1CC[C@H](C(=O)O)CC1)c1ccccc1O.[Na] [Sodium trans-4-(N-salicyloyl-aminomethyl)cyclohexane-1-carboxylic acid, reference compound]
inhibition at 1500 µM [1]: 10% | Inhibition rate of polynuclear leukocyte migration [2]: 5% | Prophylactic effect on adjuvant arthritis (adjuvant arthritis): 5%

O=C(NC[C@H]1CC[C@H](C(=O)O)CC1)c1ccc(O)c(O)c1 [trans-4-[N-(3',4'-dihydroxybenzoyl)aminomethyl]cyclohexane-1-carboxylic acid]
inhibition at 1500 µM [1]: 100% | Inhibition rate of polynuclear leukocyte migration [2]: 35% | Prophylactic effect on adjuvant arthritis (adjuvant arthritis): 30% | LD50 (in vivo): > 3000 mg/kg | abnormality on the mouse (female JCL-ICR mouse): no abnormality on the mouse was found

Reference: patent US4409240A, “Derivatives of dihydroxybenzoic acid and pharmaceutical composition thereof” (Kureha Kagaku Kogyo Kabushiki Kaisha, priority 1981, dated 1983)
